# B1: tRNA-Leu(CAG): tRNA purified from Escherichia coli MRE600 total tRNA, SEQ ID NO: 218 (nucleic acid, listed as Escherichia coli)
# chain: GCGAAGGUGGCGGAANNGGNAGACGCGCUAGCUUCAGGNGNUAGUGUCCUUACGGACGUGGGGGUNCAAGUCCCCCCCCUCGCACCA
# modifications: expressed or natural sequence
# B2: tRNA-Val(UAC): tRNA purified from Escherichia coli MRE600 total tRNA, SEQ ID NO: 237 (nucleic acid, listed as Escherichia coli)
# chain: GGGUGAUUAGCUCAGCDGGGAGAGCACCUCCCUUACAAGGAGGGGGUCGGCGGUNCGAUCCCGUCAUCACCCACCA
# modifications: expressed or natural sequence
# Key:
# [1] = system: HCT-8/5-FU (5-FU-resistant strain of HCT-8); test: MTT cytotoxicity assay on HCT-8/5-FU cells; format: cell-based, human; conditions: Homo sapiens, MTT, 48 h treatment
# Protocol: (§1) HCT-8, fluorouracil-resistant HCT-8, fluorouracil-resistant LoVo cell lines were cultured in RPMI Medium 1640 medium containing 10% FBS and 1% penicillin/streptomycin. LoVo cell line was cultured in F-12K medium containing 10% FBS and 1% penicillin/streptomycin. All cell lines above were cultured at humidified atmosphere containing 5% CO2 at 37° C.
# (§2) In the cytotoxicity assay, exponentially growing cells of each cancer cell line were plated in 96-well microplate at a density of 5000 cells per well in 100 μL of culture medium and allowed to adhere for 24 h before treatment. Serial concentrations of RNA molecules obtained in Example 1 to 4 in a mixture containing a gene delivery carrier, i.e. Lipofectamine™ RNAiMAX Transfection Reagent (Thermo Fisher Scientific, U.S.A.) were then added to the cells. After treated for 48 h, MTT solution (50 μL per well, 1 mg/mL solution) was added to each well and incubated for 4 h at 37° C. Subsequently, 200 μL dimethyl sulfoxide (DMSO) were added and the optical densities of the resulting solutions were calorimetrically determined at 570 nm using a SpectraMax 190 microplate reader (Molecular Devices, Sunnyvale, CA, U.S.A). Dose-response curves were obtained, and the IC50 values were calculated by GraphPad Prism 5 (GraphPad, La Jolla, CA, USA). Each experiment was carried out for three times. IC50 results were expressed as means±standard deviation.
# [2] = system: HCT-8 human ileocecal colorectal adenocarcinoma cell line; test: MTT cytotoxicity assay on HCT-8 cells; format: cell-based; conditions: for cell viability of HCT-8 cells (FIG. 6A): 50 nM, 48 h, vs control and RNAiMAX group
# Protocol: as §1, §2
# [3] = system: LoVo colorectal adenocarcinoma cell line; test: MTT cytotoxicity assay on LoVo cells; format: cell-based; conditions: Homo sapiens, MTT, 48 h treatment
# Protocol: as §1, §2
# [4] = system: LoVo/5-FU (5-FU-resistant strain of LoVo); test: MTT cytotoxicity assay on LoVo/5-FU cells; format: cell-based; conditions: Homo sapiens, MTT, 48 h treatment
# Protocol: as §1, §2
Molecule,cell viability of HCT-8 cells (FIG. 6A) [2],further results
"O=c1[nH]cc(F)c(=O)[nH]1 [5-FU, fluorouracil, reference compound]",–,"IC50 [1]: 171 µM; IC50 ([2]; Homo sapiens, HCT-8, MTT, 48 h treatment): 41.4 µM; IC50 [3]: 63.9 µM; IC50 [4]: 133 µM"
"EC41 mimic: 22 bp dsRNA; antisense SEQ ID NO: 47 GGGUGAUUAGCUCAGCUGGGAG, sense SEQ ID NO: 141 CUCCCAGCUGAGCUAAUCACCC; 5′-t of tRNA-Val(UAC) (listed as RNA, chemistry not given here) [22 bp dsRNA; 5′-t of tRNA-Val(UAC)]",effective to colorectal cancer cells,–
"EC42 mimic: 22 bp dsRNA; antisense SEQ ID NO: 48 UCGAUCCCGUCAUCACCCACCA, sense SEQ ID NO: 142 UGGUGGGUGAUGACGGGAUCGA; 3′-t of tRNA-Val(UAC) (listed as RNA, chemistry not given here) [22 bp dsRNA; 3′-t of tRNA-Val(UAC)]",effective to colorectal cancer cells,–
"EC85 mimic: 22 bp dsRNA; antisense SEQ ID NO: 91 GCGAAGGUGGCGGAAUUGGUAG, sense SEQ ID NO: 185 CUACCAAUUCCGCCACCUUCGC; 5′-t of tRNA-Leu(CAG) (listed as RNA, chemistry not given here) [22 bp dsRNA; 5′-t of tRNA-Leu(CAG)]",effective to colorectal cancer cells,–
"EC86 mimic: 22 bp dsRNA; antisense SEQ ID NO: 92 UCAAGUCCCCCCCCUCGCACCA, sense SEQ ID NO: 186 UGGUGCGAGGGGGGGGACUUGA; 3′-t of tRNA-Leu(CAG) (listed as RNA, chemistry not given here) [22 bp dsRNA; 3′-t of tRNA-Leu(CAG)]",effective to colorectal cancer cells,–
B1,effective to colorectal cancer cells,–
B2,effective to colorectal cancer cells,–
